This note sets out measurements from patent US20110301162A1, “AURORA KINASE MODULATORS AND METHODS OF USE” (AMGEN INC., priority 2008, published 2011).

The target of experiment [1] is T1, AuroraB (Homo sapiens, UniProt Q96GD4).
T1 construct: 20 μL of AuroraB FL His; His
The experiment can be described thus: AuroraB Homogeneous Time Resolved Fluorescent (HTRF) kinase assay. It counts as biochemical. The following applies: average; ATP 23 μM; read-out: AurB_IC50_IP (uM Avg). As to the method:
The AuroraB HTRF assay begins with AuroraB in the presence of ATP phosphorylating the biotinylated peptide Histone H3. The reaction incubates for about 90 min. the reaction is quentched by addition of detection reagents, which stop the reaction by diluting out the enzyme and chelating the metals due to the presence of EDTA. After addition, the assay is incubated for about 60 min to allow detection reagents to equilibrate.
The AuroraB HTRF assay comprises 1 μL of compound in 100% DMSO, 20 μL of ATP and biotinylated Histone H3, and 20 μL of AuroraB FL His for a final volume of 41 μL. The final concentration of Histone H3 is 0.1 μM. The final concentration of ATP is 23 μM (Km(app)=23 μM+/−2.6) and the final concentration of AuroraB is 400 pM. Buffer conditions are as follows: 50 mM HEPES pH 7.5, 5 mM NaCl, 0.5 mM MgCl, 0.5 mM MnCl, 2 mM DTT, 0.05% BSA.
The assay is quenched and stopped with 160 μL of detection reagent. Detection reagents are as follows: Buffer made of 50 mM Tris, pH 7.5, 100 mM NaCl, 3 mM EDTA, 0.05% BSA, 0.1% Tween20. Added to this buffer prior to reading is Steptavidin allophycocyanin (SA-APC) at a final conc in the assay of 0.001 mg/mL, and europilated anti-phosphoHistoneH3 Ab (Eu-anti-HisH3) at a final conc of 0.064 nM.
The assay plate is read in either a Discovery or a RubyStar. The eu-anti-HisH3 is excited at 320 nm and emits at 615 nm to excite the SA-APC which in turn emits at 655 nm. The ratio of SA-APC at 655 nm (excited due to close proximity to the Eu-anti-HisH3 because of phosphorylation of the peptide) to free Eu-anti-HisH3 at 615 nm will give substrate phosphorylation.
Many of the Examples described herein were tested, and fund to be active compounds. Table I includes related biological data, which may be interpreted using the activity gauge below.
For orientation: Time-resolved FRET reads energy transfer from a long-lived donor to a nearby acceptor.

Experiment [2] has as its system HeLa cells. The experiment can be described thus: HeLa cell 24 hr ploidy assay. It is filed as cell-based. The following applies: Homo sapiens, 24 hrs treatment, DNA ploidy, average, read-out: 24h_4N Ploidy EC50_IP (uM Avg). As to the method:
The purpose of this assay is to evaluate the ability of selected individual compounds to induce Deoxyribonucleic acid (DNA) content (ploidy) in cells through failed cell division. Cell cycle analysis is a rapid and efficient way to evaluate the status of DNA content (ploidy) of a given cell. HeLa cells (1×10^4 HeLa cells/well) in 100 ul of media (MEM+10% FBS) were plated in 96-well plates (Packard View) and cultured for 24 hrs at 37° C. maintained in a 5% CO2 atmosphere. The following day, cells were treated for 24 hrs with inhibitor compounds (10 pt. Dose ranging from 0.0024-1.25 umol/L). The compounds were serially diluted in DMSO (0.25% final concentration). The cells were fixed (3.7% Formaldehyde and 1% glutaraldehyde) and permeabilized (1×PBS with 1% BSA an d0.2% Triton X-100) in preparation for nuclear staining. The well plates were stained for 45 minutes at RT in the dark using Hoechest 33342 nuclear stain at 0.5 ug.ml (Stock of 10 mg/ml, Invitrogen, Calif., Cat #H3570). The nuclear stain was removed by aspiration and the cells were washed with wash buffer. A Cellomics Array Scan Vti plate reader was used to acquire the DNA ploidy data of the cells using Cell Cycle bioapplication. Numbers for each of “valid cell count/well”, “% of 4N cells” and “% of >4Ncells” were calculated with the assistance of an Activity Base 5.1ca software and dose curves were generated using an XLFit software. With XLFit, final EC50 IP and EC50 transit values, as well as the Max and Min, were calculated for each curve.

For experiment [3], the target named is T2, AuroraA-TPX2 (Homo sapiens, UniProt O14965).
T2 construct: 20 μL of AuroraA-TPX2 KD GST; GST
T2 sequence (O14965 133-383 limits assumed): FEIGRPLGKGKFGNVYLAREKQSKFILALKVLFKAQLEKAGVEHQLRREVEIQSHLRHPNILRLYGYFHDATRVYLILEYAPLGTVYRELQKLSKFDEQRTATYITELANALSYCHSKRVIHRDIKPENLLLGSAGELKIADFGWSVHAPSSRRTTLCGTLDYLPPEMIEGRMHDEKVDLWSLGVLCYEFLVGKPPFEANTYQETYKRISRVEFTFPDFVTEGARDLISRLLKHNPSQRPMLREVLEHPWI
T2 sequence (Q9ULW0 1-43 partner limits assumed): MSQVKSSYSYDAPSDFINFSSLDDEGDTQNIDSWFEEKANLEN
As to the kind of experiment: AuroraA-TPX2 Homogeneous Time Resolved Fluorescent (HTRF) kinase assay. It is filed as biochemical. As to conditions: average; ATP about 1 μM; read-out: AurA_IC50_IP (uM Avg). As to the method: The Aurora-A HTRF assay begins with Aurora-A in the presence of ATP phosphorylating the biotinylated peptide PLK. The reaction incubates for about 120 min. Detection reagents are added to quench the reaction. These agents stop the reaction by diluting out the enzyme and chelating the metals due to the presence of EDTA. After addition, the assay is incubated overnight to allow the detection reagents to equilibrate.
The AuroraA HTRF assay comprises 1 μL of compound in 100% DMSO, 20 μL of ATP and biotinylated PLK, and 20 μL of AuroraA-TPX2 KD GST for a final volume of about 41 μL. The final concentration of PLK is about 1 μM. The final concentration of ATP is about 1 μM (Km(app)=1 μM+/−0.1) and the final concentration of AuroraA is about 5 nM. Buffer conditions are as follows: 60 mM HEPES pH 7.5, 25mM NaCl, 10 mM MgCl, 2 mM DTT, 0.05% BSA.
The assay is quenched and stopped with 160 μL of detection reagent. Detection reagents are as follows: Buffer made of 50 mM Tris, pH 7.5, 100 mM NaCl, 3 mM EDTA, 0.05% BSA, 0.1% Tween20. Added to this buffer prior to reading is Steptavidin allophycocyanin (SA-APC) at a final conc in the assay of 0.0005 mg/mL, and europilated anti-phosphoPLK Ab (Eu-anti-PLK) at a final conc of 0.02 nM.
The assay plate is read in either a Discovery or a RubyStar. The eu-anti-PLK is excited at 320 nm and emits at 615 nm to excite the SA-APC which in turn emits at 655 nm. The ratio of SA-APC at 655 nm (excited due to close proximity to the Eu-anti-PLK because of phosphorylation of the peptide) to free Eu-anti-PLK at 615 nm will give substrate phosphorylation.
Many of the Examples described herein were tested and found to be active compounds. Table I includes related biological data, which may be interpreted using the activity gauge below.

Some results are limits rather than exact numbers.

T1 sequence (Q96GD4 whole entry): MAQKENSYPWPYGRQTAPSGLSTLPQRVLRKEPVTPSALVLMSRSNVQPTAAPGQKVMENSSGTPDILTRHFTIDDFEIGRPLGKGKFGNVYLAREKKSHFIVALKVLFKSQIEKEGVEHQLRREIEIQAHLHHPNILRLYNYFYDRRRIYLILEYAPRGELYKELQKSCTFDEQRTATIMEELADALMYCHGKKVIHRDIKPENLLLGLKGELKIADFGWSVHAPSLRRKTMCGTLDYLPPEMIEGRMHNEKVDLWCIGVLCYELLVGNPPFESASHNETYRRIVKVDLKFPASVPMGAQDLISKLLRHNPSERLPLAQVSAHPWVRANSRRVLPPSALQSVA

As to `Clc1ccc(-c2nnc(Nc3ccc(Sc4ccnc(-c5cc6ccccc6[nH]5)n4)cc3)c3ccccc23)cc1` [Example 36, 4-(4-chlorophenyl)-N-(4-((2-(1H-indol-2-yl)-4-pyrimidinyl)sulfanyl)phenyl)-1-phthalazinamine], the IC50 in experiment [1] and in experiment [3] was less than 0.1 µM in each case. The EC50 in experiment [2] is less than 0.1 µM.
Take `Cc1csc(-c2nnc(Nc3ccc(Sc4ccnc(-c5cc6ccccc6[nH]5)n4)cc3)c3ccccc23)c1` [Example 37, N-(4-((2-(1H-indol-2-yl)-4-pyrimidinyl)sulfanyl)phenyl)-4-(4-methyl-2-thiophenyl)-1-phthalazinamine]: the IC50 in experiment [1] and in experiment [3] was less than 0.1 µM in each case. Also, the EC50 in experiment [2] was less than 0.1 µM.
With `Clc1ccc(-c2nnc(Nc3ccc(Oc4ccnc(-c5nc6ccccc6[nH]5)c4)cc3)c3ccccc23)cc1` [Example 38, N-(4-((2-(1H-benzimidazol-2-yl)-4-pyridinyl)oxy)phenyl)-4-(4-chlorophenyl)-1-phthalazinamine], the IC50 in experiment [1] was less than 0.1 µM; in experiment [3], 0.1 to 0.5 µM. Besides, the EC50 in experiment [2] is less than 0.1 µM.
Turning to `Cc1ccc(-c2nnc(Nc3ccc(Sc4ccnc(-c5cc6ccccc6[nH]5)n4)cc3)c3ccccc23)cn1` [Example 39, N-(4-((2-(1H-indol-2-yl)-4-pyrimidinyl)sulfanyl)phenyl)-4-(6-methyl-3-pyridinyl)-1-phthalazinamine], the IC50 in experiment [1] is less than 0.1 µM; in experiment [3], 0.1 to 0.5 µM. For the same molecule, the EC50 in experiment [2] fell in the range of 0.1 to 0.5 µM.
For `O=C(Nc1cc(Oc2ccc(Nc3nnc(-c4ccccc4)c4ccccc34)cc2F)ccn1)N1CCOCC1` [Example 44, N-(4-((2-fluoro-4-((4-phenyl-1-phthalazinyl)amino)phenyl)oxy)-2-pyridinyl)-4-morpholinecarboxamide], the IC50 is less than 0.1 µM in experiment [1] and 0.1 to 0.5 µM in experiment [3]. Besides, in experiment [2], the EC50 lay in the range of 0.1 to 0.5 µM.
